What all share (assay): Pre-emerge test, greenhouse herbicide activity screening
Holding throughout (format): in vivo

Assay [1] has as its system barnyardgrass (Echinochloa crus-galli, ECHCG). The settings on record: pre-emerge; for pest or weed control at 63 g/ha / pest or weed control at 250 g/ha: Echinochloa crus-galli, pre-emergence, 336 h, phytotoxicity rating 0-100 at 14 days after application, read-out: Pre-emerge Herbicidal Activity ECHCG; for pest or weed control at 63 g/ha: rate 63 g ai/ha; for pest or weed control at 250 g/ha: rate 250 g ai/ha; for Pre-emerge Herbicidal Activity ECHCG (phytotoxicity rating, scale 0-100): rated 14 days after application, 0 = no damage, 100 = complete death. The essentials: (§1)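 Herbicidal damage is scored 0 (none) to 100 (complete plant death) two weeks after a simulated field spray. Rates span 15–1000 g ai/ha, delivered in acetone at 187 l/ha. For post-emergence treatments, plants have 2–3 leaves and the spray carries 0.25% v/v non-ionic surfactant.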

In assay [2] the test system is green foxtail (Setaria viridis, SETVI). Particulars: pre-emerge; for pest or weed control at 63 g/ha / pest or weed control at 250 g/ha: Setaria viridis, pre-emergence, 336 h, phytotoxicity rating 0-100 at 14 days after application, read-out: Pre-emerge Herbicidal Activity SETVI; for pest or weed control at 63 g/ha: rate 63 g ai/ha; for pest or weed control at 250 g/ha: rate 250 g ai/ha; for Pre-emerge Herbicidal Activity SETVI (phytotoxicity rating, scale 0-100): rated 14 days after application, 0 = no damage, 100 = complete death. The essentials: as §1

The subject of assay [3] is ivyleaf morningglory (Ipomoea hederacea, IPOHE). The settings on record: pre-emerge; for pest or weed control at 63 g/ha / pest or weed control at 250 g/ha: Ipomoea, pre-emergence, 336 h, phytotoxicity rating 0-100 at 14 days after application, read-out: Pre-emerge Herbicidal Activity IPOHE; for pest or weed control at 63 g/ha: rate 63 g ai/ha; for pest or weed control at 250 g/ha: rate 250 g ai/ha; for Pre-emerge Herbicidal Activity IPOHE (phytotoxicity rating, scale 0-100): rated 14 days after application, 0 = no damage, 100 = complete death. A digest of the protocol:
as §1

The test system of assay [4] is johnsongrass (Sorghum halepense, SORHA). Particulars: pre-emerge; for pest or weed control at 63 g/ha / pest or weed control at 250 g/ha: Sorghum halepense, pre-emergence, 336 h, phytotoxicity rating 0-100 at 14 days after application, read-out: Pre-emerge Herbicidal Activity SORHA; for pest or weed control at 63 g/ha: rate 63 g ai/ha; for pest or weed control at 250 g/ha: rate 250 g ai/ha; for Pre-emerge Herbicidal Activity SORHA (phytotoxicity rating, scale 0-100): rated 14 days after application, 0 = no damage, 100 = complete death. The essentials:
as §1

The test system of assay [5] is lambsquarters (Chenopodium album, CHEAL). Particulars: pre-emerge; for pest or weed control at 63 g/ha / pest or weed control at 250 g/ha: Chenopodium album, pre-emergence, 336 h, phytotoxicity rating 0-100 at 14 days after application, read-out: Pre-emerge Herbicidal Activity CHEAL; for pest or weed control at 63 g/ha: rate 63 g ai/ha; for pest or weed control at 250 g/ha: rate 250 g ai/ha; for Pre-emerge Herbicidal Activity CHEAL (phytotoxicity rating, scale 0-100): rated 14 days after application, 0 = no damage, 100 = complete death. The essentials: as §1

Assay [6] relates to large crabgrass (Digitaria sanguinalis, DIGSA). The settings on record: pre-emerge; for pest or weed control at 63 g/ha / pest or weed control at 250 g/ha: Digitaria sanguinalis, pre-emergence, 336 h, phytotoxicity rating 0-100 at 14 days after application, read-out: Pre-emerge Herbicidal Activity DIGSA; for pest or weed control at 63 g/ha: rate 63 g ai/ha; for pest or weed control at 250 g/ha: rate 250 g ai/ha; for Pre-emerge Herbicidal Activity DIGSA (phytotoxicity rating, scale 0-100): rated 14 days after application, 0 = no damage, 100 = complete death. The essentials: as §1

The subject of assay [7] is sicklepod (Cassia obtusifolia, CASOB). Particulars: pre-emerge; for pest or weed control at 63 g/ha / pest or weed control at 250 g/ha: Senna obtusifolia, pre-emergence, 336 h, phytotoxicity rating 0-100 at 14 days after application, read-out: Pre-emerge Herbicidal Activity CASOB; for pest or weed control at 63 g/ha: rate 63 g ai/ha; for pest or weed control at 250 g/ha: rate 250 g ai/ha; for Pre-emerge Herbicidal Activity CASOB (phytotoxicity rating, scale 0-100): rated 14 days after application, 0 = no damage, 100 = complete death. The essentials:
as §1

Consider `COc1c(Cl)cc(F)c(-c2nn(C)c(C(F)(F)F)c2Cl)c1NC(=O)C=Cc1ccccc1` [Compound 7-15], for which the pest or weed control at 63 g/ha is 0% in assay [1]; 0% in assay [2]; 0% in assay [3]; 0% in assay [4]; 100% in assay [5]; 0% in assay [6]. Further, the pest or weed control at 63 g/ha in assay [7] stood at 0%. Also, the pest or weed control at 250 g/ha in assay [1] was determined as 10%; in assay [2] it was 60%; in assay [3] it was 50%; in assay [4], 20%; in assay [5] it was 100%; in assay [6], 60%. Moreover, the pest or weed control at 250 g/ha in assay [7] is 10%.
As for `Cc1nn(-c2c(Cl)cc(Cl)cc2NC(=O)c2ccc3ccccc3c2)c(=O)n1C(F)F` [Compound 6-16], the pest or weed control at 63 g/ha in assay [1] was determined as 10%; in assay [2], 60%; in assay [3], 0%; in assay [5] it was 100%; in assay [6], 30%; in assay [7], 0%. Further, the pest or weed control at 250 g/ha in assay [1] turned out to be 30%; in assay [2], 90%; in assay [3] it was 0%; in assay [5], 100%; in assay [6] it was 90%; in assay [7], 0%.
On to `CC(C)Oc1c(Cl)cc(F)c(-n2nnn(CCCF)c2=O)c1N` [Compound 5-18, 1-(2-amino-4-chloro-6-fluoro-3-isopropyloxyphenyl)-4-(3fluoropropyl)-1,4-dihydro-5-oxo-5H-tetrazole], for which the pest or weed control at 63 g/ha was 0% in assay [1]; 95% in assay [2]; 0% in assay [3]; 40% in assay [4]; 70% in assay [5]; 30% in assay [6]. Further, the pest or weed control at 63 g/ha in assay [7] was 0%. Besides, the pest or weed control at 250 g/ha in assay [1] amounted to 0%; in assay [2], 90%; in assay [3], 0%; in assay [4] it was 30%; in assay [5] it was 95%; in assay [6], 20%. Moreover, the pest or weed control at 250 g/ha in assay [7] came out at 10%.
With `Cc1nn(-c2c(N)cc(Cl)cc2F)c(=O)n1C(F)F` [Compound 6-22], the pest or weed control at 63 g/ha is 0% in assay [1]; 10% in assay [2]; 0% in assay [3]; 0% in assay [4]; 40% in assay [5]; 0% in assay [6]. Also, the pest or weed control at 63 g/ha in assay [7] amounted to 0%. The pest or weed control at 250 g/ha in assay [1] was determined as 0%; in assay [2], 50%; in assay [3], 0%; in assay [4], 10%; in assay [5], 100%; in assay [6] it was 20%. Besides, the pest or weed control at 250 g/ha in assay [7] came out at 60%.
Take `COc1c(Cl)cc(Cl)c(-n2nc(C)n(C(F)F)c2=O)c1NC(=O)c1ccc2ccccc2c1` [Compound 6-17]: the pest or weed control at 63 g/ha turned out to be 10% in assay [1]; 70% in assay [2]; 0% in assay [3]; 100% in assay [5]; 30% in assay [6]; 0% in assay [7]. Also, the pest or weed control at 250 g/ha in assay [1] was 90%; in assay [2] it was 99%; in assay [3] it was 30%; in assay [5], 100%; in assay [6], 99%; in assay [7], 20%.
For `Cc1nn(-c2c(F)cc(Cl)cc2NC(=O)c2ccc3ccccc3c2)c(=O)n1C(F)F` [Compound 6-24], the pest or weed control at 63 g/ha in assay [1] was 0%; in assay [2] it was 0%; in assay [3], 0%; in assay [5], 30%; in assay [6] it was 0%; in assay [7] it was 0%. The pest or weed control at 250 g/ha came out at 0% in assay [1]; 40% in assay [2]; 0% in assay [3]; 90% in assay [5]; 20% in assay [6]; 0% in assay [7].
Turning to `Cn1c(C(F)(F)F)cc(=O)n(-c2c(F)cc(Cl)c(OC(F)F)c2N)c1=O` [Compound 1-38, 3-(2-amino-4-chloro-3-difluoromethoxy-6-fluorophenyl)-1-methyl-6-trifluoromethyl-2,4(1H, 3H)-pyrimidinedione], the results for the “Pre-emerge Herbicidal Activity ECHCG (phytotoxicity rating, scale 0-100)” value in assay [1] (63 g ai/ha) and in assay [1] (250 g ai/ha) were 95 and 100, respectively. The “Pre-emerge Herbicidal Activity SETVI (phytotoxicity rating, scale 0-100)” value in assay [2] (63 g ai/ha) and in assay [2] (250 g ai/ha) was 100 in each case. The “Pre-emerge Herbicidal Activity IPOHE (phytotoxicity rating, scale 0-100)” value in assay [3] (63 g ai/ha) and in assay [3] (250 g ai/ha) was 100 throughout. Also, the “Pre-emerge Herbicidal Activity SORHA (phytotoxicity rating, scale 0-100)” value in assay [4] (63 g ai/ha) turned out to be 90; in assay [4] (250 g ai/ha), 100. For the same compound, the “Pre-emerge Herbicidal Activity CHEAL (phytotoxicity rating, scale 0-100)” value in assay [5] (63 g ai/ha) and in assay [5] (250 g ai/ha) was 100 throughout. Also, the “Pre-emerge Herbicidal Activity DIGSA (phytotoxicity rating, scale 0-100)” value in assay [6] (63 g ai/ha) and in assay [6] (250 g ai/ha) was 100 each time. The “Pre-emerge Herbicidal Activity CASOB (phytotoxicity rating, scale 0-100)” value in assay [7] (63 g ai/ha) and in assay [7] (250 g ai/ha) was 100 in each case.
As for `CC(C)Oc1c(Cl)cc(F)c(N2C(=O)C3=C(CCCC3)C2=O)c1N` [Compound 8-4, N-(2-amino-4-chloro-6-fluoro-3-isopropyloxyphenyl)tetrahydrophthalimide], the pest or weed control at 63 g/ha came to 0% in assay [1]; 30% in assay [2]; 0% in assay [3]; 0% in assay [4]; 80% in assay [5]; 20% in assay [6]. Further, the pest or weed control at 63 g/ha in assay [7] came out at 0%. Moreover, the pest or weed control at 250 g/ha turned out to be 0% in assay [1]; 70% in assay [2]; 0% in assay [3]; 20% in assay [4]; 99% in assay [5]; 20% in assay [6]. Further, in assay [7], the pest or weed control at 250 g/ha came to 0%.
`COc1c(Cl)cc(F)c(-c2nn(C)c(C(F)(F)F)c2Cl)c1NC(=O)c1ccc2ccccc2c1` [Compound 7-14]: the pest or weed control at 63 g/ha was 0% in assay [1]; 0% in assay [2]; 30% in assay [3]; 70% in assay [5]; 60% in assay [6]; 10% in assay [7]. Besides, the pest or weed control at 250 g/ha in assay [1] came out at 40%; in assay [2], 70%; in assay [3], 20%; in assay [5], 100%; in assay [6], 70%; in assay [7] it was 50%.

These data come from patent US6355799B1, “Substituted benzene compounds, process for their preparation, and herbicidal and defoliant compositions containing them” (ISK Americas Incorporated, priority 1997, dated 2002).
